According to patent US20090318451A1, “[…] AGONISTS FOR THE TREATMENT OF PAIN” (Pfizer Inc., priority 2007, published 2009):
pEC50, pIC50, pKi: −log10 of the molar value. Like-named read-outs stand apart in the source and are kept apart here.

Legend:
[1] = system: MIA-induced static allodynia (rats); test: Monosodium iodoacetate (MIA)-induced static allodynia; assay type: in vivo, rat
[2] = target: T1, human Dopamine D3 receptor (Homo sapiens, UniProt P35462); test: Inhibition via dopamine D3 receptors of forskolin-stimulated adenylate cyclase activity (cAMP, hD3CHO cells); assay type: cell-based; settings: for functional selectivity for D3 over D2: D2 EC50 divided by D3 EC50, 10000 used where D2 EC50 >10000
T1 construct: expressed in transfected cells; host or cells: CHO (dihydrofolate reductase deficient), generated in house
T1 sequence (P35462 whole entry): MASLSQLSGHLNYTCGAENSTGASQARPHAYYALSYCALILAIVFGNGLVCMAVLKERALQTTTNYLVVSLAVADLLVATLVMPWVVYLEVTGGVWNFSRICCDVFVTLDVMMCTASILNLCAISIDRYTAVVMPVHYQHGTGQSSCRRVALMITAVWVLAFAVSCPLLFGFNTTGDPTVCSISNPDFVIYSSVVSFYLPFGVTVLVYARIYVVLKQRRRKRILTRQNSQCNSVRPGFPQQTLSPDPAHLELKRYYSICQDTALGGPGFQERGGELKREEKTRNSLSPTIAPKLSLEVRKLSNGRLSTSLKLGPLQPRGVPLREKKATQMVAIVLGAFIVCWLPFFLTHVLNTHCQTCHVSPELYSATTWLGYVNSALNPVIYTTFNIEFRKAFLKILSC

[3] = system: Hotplate paw withdrawal latency (rats); test: Hotplate paw withdrawal latency; assay type: in vivo, rat
[4] = system: Capsaicin-induced hyperalgesia; test: Capsaicin-induced hyperalgesia, static and dynamic allodynia endpoint; assay type: in vivo, rat
D5 = D5 (Homo sapiens, UniProt P21918); test: In vitro binding (membrane preparation), human recombinant receptors, D5
Sequence of D5 (P21918 whole entry): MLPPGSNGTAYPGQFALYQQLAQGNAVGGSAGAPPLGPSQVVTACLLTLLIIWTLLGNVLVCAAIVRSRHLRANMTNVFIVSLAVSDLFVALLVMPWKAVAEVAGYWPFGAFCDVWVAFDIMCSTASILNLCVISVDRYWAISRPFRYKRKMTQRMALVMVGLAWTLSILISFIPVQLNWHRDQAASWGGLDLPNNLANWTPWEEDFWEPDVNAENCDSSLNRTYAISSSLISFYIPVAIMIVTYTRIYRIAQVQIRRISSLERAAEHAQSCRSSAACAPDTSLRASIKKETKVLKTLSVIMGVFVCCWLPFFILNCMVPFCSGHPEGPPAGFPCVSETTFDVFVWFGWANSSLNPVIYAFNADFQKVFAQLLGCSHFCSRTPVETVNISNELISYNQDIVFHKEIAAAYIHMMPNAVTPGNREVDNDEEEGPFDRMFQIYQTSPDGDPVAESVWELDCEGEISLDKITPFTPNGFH

[5] = system: MIA-induced weight deficit (rats); test: MIA-induced weight-bearing deficit; assay type: in vivo, rat
[6] = system: CCI-induced static and dynamic allodynia (rats); test: Chronic constriction injury (CCI) of sciatic nerve, static and dynamic allodynia; assay type: in vivo, rat
D2 dopamine receptor = D2 dopamine receptor (Homo sapiens, UniProt P14416); test: In vitro binding (membrane preparation), human recombinant receptors, D2
Sequence of D2 dopamine receptor (P14416 whole entry): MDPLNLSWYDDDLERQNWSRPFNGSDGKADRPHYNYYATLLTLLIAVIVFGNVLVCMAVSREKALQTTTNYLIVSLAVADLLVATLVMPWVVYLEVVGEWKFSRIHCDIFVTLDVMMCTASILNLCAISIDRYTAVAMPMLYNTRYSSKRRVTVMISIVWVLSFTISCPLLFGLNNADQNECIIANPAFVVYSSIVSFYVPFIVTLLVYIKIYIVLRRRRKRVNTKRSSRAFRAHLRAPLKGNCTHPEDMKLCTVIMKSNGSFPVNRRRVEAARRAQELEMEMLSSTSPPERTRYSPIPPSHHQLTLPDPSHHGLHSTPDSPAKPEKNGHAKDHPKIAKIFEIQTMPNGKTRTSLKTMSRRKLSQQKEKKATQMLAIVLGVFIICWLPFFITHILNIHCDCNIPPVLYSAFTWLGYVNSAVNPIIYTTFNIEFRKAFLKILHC

D1 = D1 (Homo sapiens, UniProt P21728); test: In vitro binding (membrane preparation), human recombinant receptors, D1
Sequence of D1 (P21728 whole entry): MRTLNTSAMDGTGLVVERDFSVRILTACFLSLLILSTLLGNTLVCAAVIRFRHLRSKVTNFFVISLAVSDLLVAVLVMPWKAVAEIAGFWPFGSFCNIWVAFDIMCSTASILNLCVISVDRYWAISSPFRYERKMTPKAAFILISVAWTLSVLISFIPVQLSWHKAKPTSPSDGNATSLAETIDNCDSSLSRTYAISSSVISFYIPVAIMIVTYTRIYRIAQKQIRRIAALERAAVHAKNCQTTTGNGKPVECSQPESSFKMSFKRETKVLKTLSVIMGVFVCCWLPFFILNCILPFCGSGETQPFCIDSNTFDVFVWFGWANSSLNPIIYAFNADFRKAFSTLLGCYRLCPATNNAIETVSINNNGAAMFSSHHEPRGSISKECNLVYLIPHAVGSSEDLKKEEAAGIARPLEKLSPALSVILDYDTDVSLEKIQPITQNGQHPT

D4 dopamine receptor [7] = target: T2, D4 dopamine receptor (Homo sapiens, UniProt P21917); test: In vitro binding (membrane preparation), human recombinant receptors, D4
T2 construct: expressed in transfected cells
T2 sequence (P21917 1-419): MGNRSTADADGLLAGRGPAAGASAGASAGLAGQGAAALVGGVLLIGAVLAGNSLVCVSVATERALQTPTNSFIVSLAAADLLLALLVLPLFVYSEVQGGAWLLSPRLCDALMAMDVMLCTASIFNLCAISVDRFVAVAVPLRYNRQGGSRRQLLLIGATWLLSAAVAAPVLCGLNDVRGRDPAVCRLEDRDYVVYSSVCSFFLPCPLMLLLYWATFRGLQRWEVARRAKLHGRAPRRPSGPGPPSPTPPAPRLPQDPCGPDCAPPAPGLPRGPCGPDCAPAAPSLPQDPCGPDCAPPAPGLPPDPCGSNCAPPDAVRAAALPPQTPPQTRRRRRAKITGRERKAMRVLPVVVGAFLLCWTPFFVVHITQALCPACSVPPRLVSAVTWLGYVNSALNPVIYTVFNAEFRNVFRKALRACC

[8] = system: Plantar surgery-induced static and dynamic allodynia (rats); test: Plantar surgery model of postsurgical pain, static and dynamic allodynia; assay type: in vivo, rat
D3 dopamine receptor = D3 dopamine receptor (Homo sapiens, UniProt P35462); test: In vitro binding (membrane preparation), human recombinant receptors, D3
Sequence of D3 dopamine receptor (P35462 whole entry): as the sequence (P35462 whole entry) above

D4 dopamine receptor [9] = target: T2, D4 dopamine receptor; test: Functional inhibition of forskolin-stimulated cAMP accumulation in human recombinant cell lines, D4; assay type: cell-based
[10] = Free plasma concentration after oral dosing in pain model rats; settings: for peak free-plasma concentration / predicted free-plasma exposure: based on the known PK profile, 0.1 mg/kg
[11] = target: T3, human dopamine D2long receptor (Homo sapiens, UniProt P14416); test: Inhibition via dopamine D2 receptors of forskolin-stimulated adenylate cyclase activity (cAMP, GH4C1/hD2L cells); assay type: cell-based
T3 construct: expressed in transfected cells; host or cells: GH4C1 rat pituitary cells
T3 sequence (P14416 whole entry): as the sequence (P14416 whole entry) above

SMILES: N#Cc1ccc2c(c1)CCN(CCC1CCC(NC(=O)c3ccnc4ccccc34)CC1)C2 (stereo not drawn) [quinoline-4-carboxylic acid (4-[2-(6-cyano-3,4-dihydro-1H-isoquinolin-2-yl)ethyl]cyclohexyl)-amide, reference compound]
- effect of 0.1 mg/kg of the compound of Example 67 on MIA allodynia after D3 antagonist ([1]; antagonist oral 3 mg/kg): abolished

SMILES: CCCN1CCO[C@H](c2cccc(O)c2)C1.Cl [Example 8, R-(−)-3-(4-Propylmorpholin-2-yl)phenol hydrochloride]
- pEC50 [2]: 8.12
- functional selectivity for D3 over D2 [2]: 1315.8 fold

SMILES: CCCN1C[C@@H](c2ccc(N)nc2)OC[C@@H]1C [Example 67, 5-[(2R,5S)-5-methyl-4-propylmorpholin-2-yl]pyridin-2-amine]
- efficacy in hotplate model (paw withdrawal latency) ([3]; rat, oral 0.01, 0.03, 0.1 and 1.0 mg/kg, hotplate 52° C.): no efficacy
- Minimum Effective Dose, hotplate paw withdrawal latency ([3]; rats, oral): No effect up to 1.0 mg/kg oral
- Minimum Effective Dose, capsaicin-induced hyperalgesia ([4]; oral): 0.01 mg/kg oral
- dose giving optimal effect in capsaicin model ([4]; rat, oral pre-dosing): 1 mg/kg
- effect on capsaicin-induced static and dynamic allodynia ([4]; rat, oral pre-dosing 0.01, 0.1 and 1 mg/kg, capsaicin 1 hour after dosing): dose response
- pIC50 (D5): < 5.00
- Minimum Effective Dose, MIA-induced weight deficit ([5]; oral, single-dose study): 0.1 mg/kg oral single-dose study
- efficacy on weight-bearing deficit following MIA injection ([5]; single dose 0.1 mg/kg): efficacy similar to optimal opioid treatment
- Minimum Effective Dose, CCI-induced static and dynamic allodynia ([6]; oral): No effect up to 0.1 mg/kg oral
- effect on CCI-induced static and dynamic allodynia ([6]; oral 0.1 mg/kg): no effects
- pIC50 (D2 dopamine receptor): < 5.00
- Minimum Effective Dose, MIA-induced static allodynia ([1]; oral): 0.01 mg/kg
- reversal of MIA-induced static allodynia ([1]; oral 0.1 mg/kg): full reversal
- reversal of MIA-induced static allodynia ([1]; oral 0.01, 0.03 and 0.1 mg/kg): dose response in reversal of the allodynia
- pIC50 (D1): < 5.00
- pKi (D4 dopamine receptor [7]): 5.38
- oral dose giving maximal effect on surgery-induced allodynia [8]: 0.1 mg/kg
- reversal of surgery-induced static and dynamic allodynia ([8]; oral): dose-dependent reversal
- pKi (D3 dopamine receptor): 6.67
- binding selectivity over D2 dopamine receptor (D3 dopamine receptor; D3 versus D2 binding): > 46 fold
- pEC50 (D4 dopamine receptor [9]): 5.41
- Emax (D4 dopamine receptor [9]; forskolin-stimulated cAMP accumulation, (95% CI)): 92%
- functional selectivity for D3 over D2 [2]: > 470 fold
- Emax ([2]; D3, CHO cells, full agonist, normalised to pramipexole, read-out: % Emax): 95%
- functional selectivity over D4 dopamine receptor ([2]; D3 versus D4, cAMP): 180 fold
- Emax ([2]; forskolin-stimulated cAMP accumulation, (95% CI), read-out: % Emax, D3): 95%
- peak free-plasma concentration / predicted free-plasma exposure ([10]; oral 0.1 mg/kg): 10 nM
- peak free-plasma concentration / predicted free-plasma exposure ([10]; oral 0.1 mg/kg, listed as 5-[(2R,5S)-5-methyl-4-propylmorpholin-2-yl]pyridin-2-amine): approximately 10 nM
- measured mean free Cmax for MED, MIA-induced static allodynia ([10]; rats, 0.01 mg/kg oral): 1.85 nM
- free plasma concentration ([10]; rats, oral 0.01 mg/kg): 1.85 nM
- free plasma concentration ([10]; rats, oral 0.03 mg/kg): 5.70 nM
- free plasma concentration ([10]; rats, oral 0.1 mg/kg): 10.77 nM
- pEC50 [11]: < 5.00
- % Response @ 10 μM, D2 ([11]; 10 μM, response as percentage of the effect to pramipexole, (95% CI)): % Response @ 10 μM = 36 (19-56)

SMILES: COc1cccc(C2(O)CCCCC2CN(C)C)c1 (stereo not drawn) [tramadol, reference compound]
- reversal of MIA-induced static allodynia, positive control ([1]; 100 mg/kg): full reversal

SMILES: CC(C)C[C@H](CN)CC(=O)O [pregabalin, reference compound]
- effect in capsaicin model, positive control compared with Example 67 at 1 mg/kg ([4]; rat, 30 mg/kg): equivalent in magnitude
